Question: With `CCOC(=O)c1cc(C(=O)c2ccccc2[N+](=O)[O-])n2c1ccc1cc(C)ccc12` [Compound 4d, Ethyl 7-methyl-1-(2-nitrobenzoyl)pyrrolo[1,2-a]quinoline-3-carboxylate] as the compound, how does the melting point read?
Answer: 174 to 175 °C

Question: For `CCOC(=O)c1cc(C(=O)c2ccc(F)cc2)n2c1ccc1cc(C)ccc12`, which melting point is on record?
Answer: 163 to 164 °C

Question: Which melting point does the source give for `CCOC(=O)c1cc(C(=O)c2cc(C(F)(F)F)cc(C(F)(F)F)c2)n2c1ccc1cc(C)ccc12` [Compound 4f, Ethyl 1-(3,5-bis(trifluoromethyl)benzoyl)-7-methylpyrrolo[1,2-a]quinoline-3-carboxylate] here?
Answer: 223 to 224 °C

Question: For `CCOC(=O)c1cc(C(=O)c2ccccc2)n2c1ccc1cc(C)ccc12`, which melting point is on record?
Answer: 139 to 140 °C

Question: Which melting point does the source give for `CCOC(=O)c1cc(C(=O)c2ccc(C)cc2)n2c1ccc1cc(C)ccc12` here?
Answer: 155 to 156 °C

Question: With `CCOC(=O)c1cc(C(=O)c2ccc(Br)cc2)n2c1ccc1cc(C)ccc12` [Compound 4e, Ethyl 1-(4-bromobenzoyl)-7-methylpyrrolo[1,2-a]quinoline-3-carboxylate] as the compound, how does the melting point read?
Answer: 180 to 181 °C
